Source: US12636290B2, “BET inhibitors for modulating DUX4 expression in FSHD” (Saint Louis University, priority 2018, dated 2026)
Structures can show the parent of a compound that is named as a salt. Where two headings read alike, the source gives them in different places.

Tested on: DUX4 expression (surrogate marker MBD3L2)
Test: Screening: qPCR analysis of DUX4 target gene MBD3L2 in differentiating MB200 FSHD2 muscle cells
Type: cell-based
Conditions: Homo sapiens, 40 hours, DUX4 expression inferred from surrogate marker MBD3L2 expression (qPCR, normalized to RPL30)
Experimental: Cells and Cell Culture. Primary human myoblast cell lines, immortalized by retroviral transduction of cyclin-dependent kinase 4 (CDK4) and human telomerase reverse transcriptase (hTERT) (Stadler, et al., 2011), were obtained from the Fields Center at the University of Rochester (world-wide-web at urmc.rochester.edu/fields-center.aspx). Immortalized myoblasts were grown in Ham's F-10 Nutrient Mix (Gibco, Waltham, MA, USA) supplemented with 20% HyClone Fetal Bovine Serum (GE Healthcare Life Sciences, Pittsburgh, PA, USA), 100 U/100 μg penicillin/streptomycin (Gibco), 10 ng/ml recombinant human fibroblast growth factor (Promega Corporation, Madison, WI, USA) and 1 μM dexamethasone (Sigma-Aldrich). Differentiation of myoblasts into myotubes was achieved by switching the fully confluent myoblast monolayer into Dulbecco's Modified Eagle Medium (DMEM) (Gibco) containing 1% horse serum (Gibco), 100 U/100 μg penicillin/streptomycin, 10 μg/ml insulin (Sigma-Aldrich) and 10 μg/ml transferrin (Sigma-Aldrich) (HS/IT media) or DMEM:F12 Nutrient Mixture (1:1, Gibco) supplemented with 2% KnockOut Serum Replacement (Gibco), 100 U/100 μg penicillin/streptomycin, 10 μg/ml insulin and 10 μg/ml transferrin (KSR media) for 2-6 days.
Screening: qPCR analysis of DUX4 target genes MBD3L2. For screening compounds, differentiating MB200 FSHD2 muscle cells were exposed to BET inhibitors at a variety of concentrations for 40 hours to determine the effects of the drugs on DUX4 expression. Cell lysates were prepared using Cells-to-Ct Bulk Lysis Reagents (Invitrogen, Waltham, MA, USA). Gene expression was measured by quantitative polymerase chain reaction (qPCR) was carried out on a QuantStudio 5 (Applied Biosystems, Waltham, MA, USA) using TaqMan Gene Expression Assays (Applied Biosystems) and TaqMan Fast Virus 1-Step Master Mix (Invitrogen). The relative expression levels of DUX4 target gene methyl-CpG binding domain protein 3 like 2 (MBD3L2), was normalized to that of the reference gene ribosomal protein L30 (RPL30), which was included in multiplex (two gene) PCR reactions. TaqMan Gene Expression Assay ID numbers: MBD3L2, Hs00544743_m1; RPL30, Hs00265497_m1. Data is expressed as relative expression with the expression in absence of inhibitors set to one.
Analysis of MBD3L2 expression in cultured FSHD2 cells. DUX4 mRNA is present in very low levels, even in differentiating FSHD2 myoblasts, so DUX4 target gene MBD3L2 was used as a surrogate marker of DUX4 expression. FSHD2 patient derived muscle cells were analyzed to determine whether BET inhibitors affect MBD3L2 expression, indicating a reduction in DUX4 expression.

| SMILES | IC50 (read-out: DUX4* MT FSHD2: IC50) | IC50 (read-out: DUX4* MT FSHD2 IC50) |
| --- | --- | --- |
| Cn1cc(-c2ccc(N3CCC(c4ccc(OCCn5cncn5)cc4)CC3)nc2)c2cc[nH]c2c1=O [SLU-2119, 4-{6-[4-(4-(2-(1H-1,2,4-triazol-1-yl)ethoxy)phenyl)piperidin-1-yl]pyridin-3-yl}-6-methyl-1H-pyrrolo[2,3-c]pyridin-7(6H)-one] | 130 nM | 130 nM |
| Cn1cc(-c2ccc(N3CCC4(CCNC4)CC3)nc2)c2cc[nH]c2c1=O [SLU-2120, 4-[6-(2,8-diazaspiro[4.5]decan-8-yl)pyridin-3-yl]-6-methyl-1H-pyrrolo[2,3-c]pyridin-7(6H)-one] | 350 nM | 350 nM |
| CC(C)CCOc1ccc(C2CCN(c3ccc(-c4cn(C)c(=O)c5[nH]ccc45)cn3)CC2)cc1 [SLU-2124, 4-{6-[4-(4-(isopentyloxy)phenyl)piperidin-1-yl]pyridin-3-yl}-6-methyl-1H-pyrrolo[2,3-c]pyridin-7(6H)-one] | 1300 nM | 1300 nM |
| Cn1cc(-c2ccc(N3CCC4(CCN(C(=O)CO)C4)CC3)nc2)c2cc[nH]c2c1=O [SLU-2127] | 37 nM | 37 nM |
| Cn1cc(-c2ccc(N3CCC4(CCNCC4)CC3)nc2)c2cc[nH]c2c1=O [SLU-2130, 4-[6-(3,9-diazaspiro[5.5]undecan-3-yl)pyridin-3-yl]-6-methyl-1H-pyrrolo[2,3-c]pyridin-7(6H)-one·hydrochloride] | 120 nM | 120 nM |
| CN1CCN(CCOc2ccc(C3CCN(c4ccc(-c5cn(C)c(=O)c6[nH]ccc56)cn4)CC3)cc2)CC1=O [SLU-2131, 6-methyl-4-{6-[4-(4-(2-(4-methyl-3-oxopiperazin-1-yl)ethoxy)phenyl)piperidin-1-yl]pyridin-3-yl}-1H-pyrrolo[2,3-c]pyridin-7(6H)-one] | 62 nM | 62 nM |
| C[C@@H]1C(=O)N(C)CCN1CCOc1ccc2nc(-c3ccc(-c4cn(C)c(=O)c5[nH]ccc45)cc3)ccc2c1 [SLU-2211, (R)-4-{4-[6-(2-(2,4-dimethyl-3-oxopiperazin-1-yl)ethoxy)quinolin-2-yl]phenyl}-6-methyl-1H-pyrrolo[2,3-c]pyridin-7(6H)-one] | 62 nM | 62 nM |
| C[C@@H]1C(=O)N(C)CCN1CCOc1ccc(C2CCN(c3ccc(-c4cn(C)c(=O)c5[nH]ccc45)cc3)CC2)cc1 [SLU-2212, (R)-4-{4-[4-(4-(2-(2,4-dimethyl-3-oxopiperazin-1-yl)ethoxy)phenyl)piperidin-1-yl]phenyl}-6-methyl-1H-pyrrolo[2,3-c]pyridin-7(6H)-one] | 86 nM | 86 nM |
| C[C@@H]1C(=O)N(C)CCN1CCOc1ccc(-c2ccc3nc(-c4cn(C)c(=O)c5[nH]ccc45)ccc3c2)nc1 [SLU-2213] | 41 nM | 41 nM |
| Cn1cc(-c2ccc(N3CCC4(CCNCC4)C3)nc2)c2cc[nH]c2c1=O [SLU-2214, 4-[6-(2,8-diazaspiro[4.5]decan-2-yl)pyridin-3-yl]-6-methyl-1H-pyrrolo[2,3-c]pyridin-7(6H)-one] | 95 nM | 95 nM |
| C[C@@H]1C(=O)N(C)CCN1CCOc1ccc(-c2cc3ccc(-c4cn(C)c(=O)c5[nH]ccc45)cc3cn2)cc1 [SLU-2217, (R)-4-{3-[4-(2-(2,4-dimethyl-3-oxopiperazin-1-yl)ethoxy)phenyl]isoquinolin-7-yl}-6-methyl-1H-pyrrolo[2,3-c]pyridin-7(6H)-one] | 22 nM | 22 nM |
| Cn1cc(-c2ccc(N3CCC4(CCN(C(=O)CO)CC4)C3)nc2)c2cc[nH]c2c1=O [SLU-2218, 4-{6-[8-(2-hydroxyacetyl)-2,8-diazaspiro[4.5]decan-2-yl]pyridin-3-yl}-6-methyl-1H-pyrrolo[2,3-c]pyridin-7(6H)-one] | 41 nM | 41 nM |
| C[C@@H]1C(=O)N(C)CCN1CCOc1ccc(-c2ccc3cc(-c4cn(C)c(=O)c5[nH]ccc45)ncc3c2)cc1 [SLU-2219, (R)-4-{7-[4-(2-(2,4-dimethyl-3-oxopiperazin-1-yl)ethoxy)phenyl]isoquinolin-3-yl}-6-methyl-1H-pyrrolo[2,3-c]pyridin-7(6H)-one] | 95 nM | 95 nM |
| C[C@@H]1C(=O)N(C)CCN1CCOCC(=O)N1CCC2(CC1)CCN(c1ccc(-c3cn(C)c(=O)c4[nH]ccc34)cn1)CC2 [SLU-2225, (R)-4-{6-[9-(2-(2-(2,4-dimethyl-3-oxopiperazin-1-yl)ethoxy)acetyl)-3,9-diazaspiro[5.5]undecan-3-yl]pyridin-3-yl}-6-methyl-1H-pyrrolo[2,3-c]pyridin-7(6H)-one] | 35 nM | 35 nM |
| C[C@@H]1C(=O)N(C)CCN1CCOc1ccc(C#Cc2ccc(-c3cn(C)c(=O)c4[nH]ccc34)cc2)cc1 [SLU-2226, (R)-4-{4-[(4-(2-(2,4-dimethyl-3-oxopiperazin-1-yl)ethoxy)phenyl)ethynyl]phenyl}-6-methyl-1H-pyrrolo[2,3-c]pyridin-7(6H)-one] | 47 nM | 47 nM |
| C[C@@H]1C(=O)N(C)CCN1CCOc1ccc(CCc2ccc(-c3cn(C)c(=O)c4[nH]ccc34)cc2)cc1 [SLU-2227, (R)-4-{4-[4-(2-(2,4-dimethyl-3-oxopiperazin-1-yl)ethoxy)phenethyl]phenyl}-6-methyl-1H-pyrrolo[2,3-c]pyridin-7(6H)-one] | 69 nM | 69 nM |
| Cn1cc(-c2ccc3cc(-c4ccc(OCCO)nc4)ccc3n2)c2cc[nH]c2c1=O [SLU-2232, 4-{6-[6-(2-hydroxyethoxy)pyridin-3-yl]quinolin-2-yl}-6-methyl-1H-pyrrolo[2,3-c]pyridin-7(6H)-one] | 97 nM | 97 nM |
| C[C@@H]1CCC[C@H](C)N1CCOc1ccc(-c2ccc3cc(-c4cn(C)c(=O)c5[nH]ccc45)ccc3n2)cc1 [SLU-2233, 4-{2-[4-(2-((2R,6S)-2,6-dimethylpiperidin-1-yl)ethoxy)phenyl]quinolin-6-yl}-6-methyl-1H-pyrrolo[2,3-c]pyridin-7(6H)-one] | 290 nM | 290 nM |
| Cn1cc(-c2ccc3nc(-c4ccc(OCCN5CCOCC5)cc4)ccc3c2)c2cc[nH]c2c1=O [SLU-2234, 6-methyl-4-{2-[4-(2-morpholinoethoxy)phenyl]quinolin-6-yl}-1,6-dihydro-7H-pyrrolo[2,3-c]pyridin-7-one] | 69 nM | 69 nM |
| C[C@@H]1C(=O)N(C)CCN1CCOc1ccc(-c2ccc3nc(-c4cn(C)c(=O)c5[nH]ccc45)ccc3c2)cn1 [SLU-2235, (R)-4-{6-[6-(2-(2,4-dimethyl-3-oxopiperazin-1-yl)ethoxy)pyridin-3-yl]quinolin-2-yl}-6-methyl-1H-pyrrolo[2,3-c]pyridin-7(6H)-one] | 12 nM | 12 nM |
| C[C@H]1C(=O)N(C)CCN1CCOc1ccc(-c2ccc3cc(-c4cn(C)c(=O)c5[nH]ccc45)ccc3n2)cc1 [SLU-2236, (S)-4-{2-[4-(2-(2,4-dimethyl-3-oxopiperazin-1-yl)ethoxy)phenyl]quinolin-6-yl}-6-methyl-1H-pyrrolo[2,3-c]pyridin-7(6H)-one] | 13 nM | 13 nM |
| C[C@@H]1C(=O)N(C)CCN1CCOc1ccc(-c2ccc3cc(-c4cn(C)c(=O)c5[nH]ccc45)ccc3n2)cn1 [SLU-2240, (R)-4-{2-[6-(2-(2,4-dimethyl-3-oxopiperazin-1-yl)ethoxy)pyridin-3-yl]quinolin-6-yl}-6-methyl-1,6-dihydro-7H-pyrrolo[2,3-c]pyridin-7-one] | 35 nM | 35 nM |
| CN1CCN(CCOc2ccc(-c3ccc4cc(-c5cn(C)c(=O)c6[nH]ccc56)ccc4n3)cc2)C(C)(C)C1=O [SLU-2241, 6-methyl-4-{2-[4-(2-(2,2,4-trimethyl-3-oxopiperazin-1-yl)ethoxy)phenyl]quinolin-6-yl}-1H-pyrrolo[2,3-c]pyridin-7(6H)-one] | 110 nM | 110 nM |
| Cn1cc(-c2ccc3nc(-c4ccc(OCCN5CCNC(=O)C5)cc4)ccc3c2)c2cc[nH]c2c1=O [SLU-2242, 6-methyl-4-{2-[4-(2-(3-oxopiperazin-1-yl)ethoxy)phenyl]quinolin-6-yl}-1H-pyrrolo[2,3-c]pyridin-7(6H)-one] | 93 nM | 93 nM |
